What was measured:
[1] = system: TCF/LEF activity in pancreatic CSCs; test: TCF/LEF responsive reporter; assay type: cell-based, human
Method: (A) Pancreatic CSCs were treated with EGCG (0-60 μM) for 48 h. At the end of incubation period, the expression of Snail, ZEB1 and Slug was measured by q-RT-PCR. […] (B) Transwell migration assay. Pancreatic CSCs were plated in the top chamber of the transwell and treated with EGCG (0-60 μM) for 24 h. Cells migrated to the lower chambered were fixed with methanol, stained with crystal violet and counted. […] (C) Matrigel invasion assay. CSCs were plated onto the Matrigel-coated membrane in the top chamber of the transwell and treated with EGCG (0-60 μM) for 48 h. Cells invaded to the lower chambered were fixed with methanol, stained with crystal violet and counted. […] (D) Effects of EGCG on TCF-1/LEF activity. […] Transduced CSCs were treated with EGCG (0-60) for 48 h and the GFP fluorescence was measured. […] Cell viability was measured by trypan blue assay. […] At the end of incubation period, colonies were counted. […] Cells invaded to the lower chambered were fixed with methanol, stained with crystal violet and counted. […] Cells migrated to the lower chambered were fixed with methanol, stained with crystal violet and counted. […] Apoptosis was measured by TUNEL assay. […] Transduced CSCs were treated with EGCG (40 μM) with or without quercetin (20 μM) for 48 hrs and the luciferase activity was measured.

Prostate CSCs = test: caspase-3 activity; assay type: cell-based, human; conditions: 24 h; embelin 0-6 μM, rottlerin 0-2 μM
Method: (§1) In particular, embelin is shown to inhibit spheroid and colony formation, and induce caspase-3 and apoptosis. (A) Prostate CSCs were grown in CSC medium and treated with embelin (0-6 μM) for 7 days to obtain primary spheroids. At the end of incubation period, spheroids were collected, reseeded and treated with embelin for another week to obtain secondary spheroids. Cell viability in spheroids was measured by trypan blue assay at the end of 7 and 14 days. […] (B) Prostate CSCs were seeded in soft agar and treated with embelin (0-6 μM) for 21 days. […] (C and D) Activation of caspase-3 and induction of apoptosis is shown.
as §1, with “(A)” for “In particular, embelin is shown to inhibit spheroid and colony formation, and induce caspase-3 and apoptosis. (A)”, “rottlerin (0-2” for “embelin (0-6”, “rottlerin” for “embelin”, “apoptosis.” for “apoptosis is shown.”

## O=C(O[C@@H]1Cc2c(O)cc(O)cc2O[C@@H]1c1cc(O)c(O)c(O)c1)c1cc(O)c(O)c(O)c1 [EGCG, epigallocatechin gallate]
[1]; EGCG 0-60, 48 h
  TCF/LEF activity: inhibited TCF/LEF activity
[1]; EGCG 40 μM with or without quercetin 20 μM, 48 hrs, luciferase
  TCF/LEF transcriptional activity: inhibited

## CC(=O)c1c(O)c(C)c(O)c(Cc2c(O)c3c(c(C(=O)/C=C/c4ccccc4)c2O)OC(C)(C)C=C3)c1O [rottlerin]
Prostate CSCs
  caspase-3 activity: induces

Reference: patent US20160374944A1, “COMPOSITIONS AND METHODS FOR TREATING AND PREVENTING CANCER BY TARGETING AND INHIBITING CANCER STEM CELLS” (priority 2011, published 2016)
